Laboratory results published in US20240116946A1 (Gilead Sciences, Inc., priority 2022, published 2024).
Read-outs that look alike come from different tables or passages of the source.

Legend:
[1] = biological target: recombinant SARS-CoV-2 Main protease (Mpro) (Severe acute respiratory syndrome coronavirus 2 (2019-nCoV) (SARS-CoV-2), UniProt P0DTD1); test: Cov Mpro Biochemical IC50 Assay
SARS-CoV-2-NLuc = test: microbe, parasite or virus in culture; format: cell-based, SARS Coronavirus 2
[2] = recombinant SARS-CoV-2 Mpro, fluorogenic peptide substrate, read-out: MPro IC50
[3] = Severe acute respiratory syndrome coronavirus, 48 h, read-out: MPro EC50
[4] = recombinant SARS-CoV-2 Mpro 7.5 nM, fluorogenic peptide substrate 40 μM, read-out: MPro IC50
[5] = Severe acute respiratory syndrome coronavirus, 48 h; read-out: MPro EC50

Row | SMILES | IC50 [1, 2] [µM] | EC50 (SARS-CoV-2-NLuc; [3]) [µM] | IC50 [1, 4] [µM] | also measured
1 | Cn1cnc(COc2ccc(Cl)c(-c3ccc4c(=O)n(-c5cncc6ccccc56)c(=O)[nH]c4c3)c2)n1 [Example 90] | 0.487 | 0.886 |  | 
2 | COc1ccc(Cl)c(-c2cc3[nH]c(=O)n(-c4cncc5ccc(N6CCOCC6=O)cc45)c(=O)c3s2)c1 [Example 573, 6-(2-chloro-5-methoxyphenyl)-3-(6-(3-oxomorpholino)isoquinolin-4-yl)thieno[3,2-d]pyrimidine-2,4(1H,3H)-dione] |  |  | 0.00326 | EC50 (SARS-CoV-2-NLuc; [5]): 0.0201 µM
3 | COc1cc(-c2cc3c(s2)c(=O)n(-c2cncc(F)c2C)c(=O)n3CCC#N)c(Cl)cc1F (single isomer, unassigned) [Example 1027, 3-[6-(2-chloro-4-fluoro-5-methoxy-phenyl)-3-(5-fluoro-4-methyl-3-pyridyl)-2,4-dioxo-thieno[3,2-d]pyrimidin-1-yl]propanenitrile] |  |  | 0.0619 | EC50 (SARS-CoV-2-NLuc; read-out: MPro EC50): 0.0661 µM
4 | COc1cncc(-n2c(=O)c3sc(-c4ccccc4C#N)cc3n(CCC#N)c2=O)c1 [Example 814] |  |  | 0.0446 | EC50 (SARS-CoV-2-NLuc; [5]): 0.134 µM
5 | Cc1cc(-c2cccc(Cl)c2-c2cc3[nH]c(=O)n(-c4cncc(C5CC5)c4)c(=O)c3s2)cnn1 [Example 615, 6-(2-chloro-6-(6-methylpyridazin-4-yl)phenyl)-3-(5-cyclopropylpyridin-3-yl)thieno[3,2-d]pyrimidine-2,4(1H,3H)-dione] |  |  | 0.00985 | EC50 (SARS-CoV-2-NLuc; [5]): 0.14 µM
6 | COc1cc(-c2cc3[nH]c(=O)n(-c4cncc5ccccc45)c(=O)c3s2)c(C#N)cc1F [Example 537] |  | 0.0192 | 0.00615 | 
7 | Cc1ccccc1-c1cc2[nH]c(=O)n(-c3cncc4ccccc34)c(=O)c2s1 [Example 7] | 0.0247 | 0.109 |  | 
8 | COc1cnc(Cl)c(-c2cc3[nH]c(=O)n(-c4cncc5ccccc45)c(=O)c3s2)c1 [Example 364, 6-(2-chloro-5-methoxypyridin-3-yl)-3-(isoquinolin-4-yl)thieno[3,2-d]pyrimidine-2,4(1H,3H)-dione] | 0.00531 | 0.0182 |  | 
9 | N#Cc1ccc(Cl)c(-c2cc3[nH]c(=O)n(-c4cncc5ccccc45)c(=O)c3s2)c1 [Example 545] |  | 0.112 | 0.0294 | 
10 | COc1cc(-c2cc3[nH]c(=O)n(-c4cncc5ccccc45)c(=O)c3s2)c(C)cc1Cl [Example 716] |  | 0.0187 | 0.0159 | 
11 | COc1cc(-c2cc3c(s2)c(=O)n(-c2cncc(F)c2C)c(=O)n3CCC#N)c(Cl)cc1F [Example 1022, 3-[6-(2-chloro-4-fluoro-5-methoxy-phenyl)-3-(5-fluoro-4-methyl-3-pyridyl)-2,4-dioxo-thieno[3,2-d]pyrimidin-1-yl]propanenitrile] |  |  | 0.0073 | EC50 (SARS-CoV-2-NLuc; [5]): 0.00953 µM
12 | Cc1ccc(C#N)cc1-c1cc2c(s1)c(=O)n(-c1cncc3cnn(C)c13)c(=O)n2CCC#N [Example 809] |  | 0.2 | 0.0542 | 
13 | Cn1cc(-c2cccc(Cl)c2-c2ccc3c(=O)n(-c4cncc5ccccc45)c(=O)[nH]c3c2)nn1 [Example 310] | 0.0554 | 0.14 |  | 
14 | O=c1c2ccc(-c3ccccc3Cl)cc2[nH]c(=S)n1-c1cncc2ccccc12 [Example 239] |  |  |  | IC50 ([1]; MPro IC50, recombinant SARS-CoV-2 Mpro, fluorogenic peptide substrate): 4.84 µM; EC50 (SARS-CoV-2-NLuc; [5]): 1.82 µM
15 | O=c1[nH]c2cc(-c3ccccc3Cl)ccc2c(=O)n1-c1cnccc1C(F)(F)F [Example 125] | 22.5 | 17.5 |  | 
16 | COc1cc(-c2cc3[nH]c(=O)n(-c4cncc5ccccc45)c(=O)c3cc2F)c(C#N)cc1F [Example 202, 5-fluoro-2-[6-fluoro-3-(4-isoquinolyl)-2,4-dioxo-1H-quinazolin-7-yl]-4-methoxy-benzonitrile] | 0.0136 | 0.0184 |  | 
17 | COc1cc(-c2cc3[nH]c(=O)n(-c4cncc5nnn(C)c45)c(=O)c3s2)c(Cl)cc1F [Example 749] |  | 0.0326 | 0.00735 | 
18 | N#CCCn1c(=O)n(-c2cncc3ccc(C#N)cc23)c(=O)c2sc(-c3ccc(F)cc3Cl)cc21 [Example 1063] |  | 0.0399 | 0.0179 | 
19 | Cn1ncc2cncc(-n3c(=O)c4sc(-c5ccc(F)cc5Cl)cc4n(CCC#N)c3=O)c21 (single isomer, unassigned) [Example 955, 3-(6-(2-chloro-4-fluorophenyl)-3-(1-methyl-1H-pyrazolo[4,3-c]pyridin-7-yl)-2,4-dioxo-3,4-dihydrothieno[3,2-d]pyrimidin-1(2H)-yl)propanenitrile] |  |  | 0.00681 | EC50 (SARS-CoV-2-NLuc; read-out: MPro EC50): 0.00967 µM
20 | O=c1[nH]c2cc(-c3c(Cl)cccc3-c3ccc4c(c3)OCCO4)ccc2c(=O)n1-c1cncc2ccccc12 [Example 358] | 0.177 | 0.113 |  | 
21 | Cn1ncc2cncc(-n3c(=O)c4sc(-c5ccccc5C#N)cc4n(CCC#N)c3=O)c21 (single isomer, unassigned) [Example 961, 2-(1-(2-cyanoethyl)-3-(1-methyl-1H-pyrazolo[4,3-c]pyridin-7-yl)-2,4-dioxo-1,2,3,4-tetrahydrothieno[3,2-d]pyrimidin-6-yl)benzonitrile] |  |  | 0.00618 | EC50 (SARS-CoV-2-NLuc; read-out: MPro EC50): 0.0196 µM
22 | COc1cnc(Cl)c(-c2ccc3c(=O)n(-c4cncc5ccccc45)c(=O)[nH]c3c2)c1 [Example 257] | 0.5 | 1.15 |  | 
23 | O=C1NCCc2c1cccc2-c1cccc(Cl)c1-c1ccc2c(=O)n(-c3cncc4ccccc34)c(=O)[nH]c2c1 [Example 194] | < 0.00254 | 0.0206 |  | 

Row | SMILES | IC50 [1, 2] [µM] | EC50 (SARS-CoV-2-NLuc; [3]) [µM] | IC50 [1, 4] [µM] | also measured
24 | COc1cc(-c2cc3c(s2)c(=O)n(-c2cncc4cccnc24)c(=O)n3CCC#N)c(Cl)cc1F [Example 904, 3-(6-(2-chloro-4-fluoro-5-methoxyphenyl)-3-(1,6-naphthyridin-8-yl)-2,4-dioxo-3,4-dihydrothieno[3,2-d]pyrimidin-1(2H)-yl)propanenitrile] |  | 0.00134 | 0.00429 | 
25 | COc1cccc(Cl)c1-c1cc2[nH]c(=O)n(-c3cncc4ccccc34)c(=O)c2s1 [Example 19] | 0.0295 | 0.0596 |  | 
26 | COc1cc(-c2cc3c(s2)c(=O)n(-c2cncc4ccccc24)c(=O)n3CC2(C#N)CCC2)c(Cl)cc1F [Example 690] |  | 0.0988 | 0.047 | 
27 | Cc1noc(C)c1-c1cccc(Cl)c1-c1cc2[nH]c(=O)n(-c3cncc4ccccc34)c(=O)c2s1 [Example 355] | 0.00964 | 0.0229 |  | 
28 | COc1cc(-c2cc3c(s2)c(=O)n(-c2cncc4ncc(C)n24)c(=O)n3CCC#N)c(Cl)cc1F [Example 952] |  | 0.0163 | 0.0109 | 
29 | NC(=O)c1ccccc1-c1ccc2c(=O)n(-c3cncc4ccccc34)c(=O)[nH]c2c1 [Example 66, 2-(3-(isoquinolin-4-yl)-2,4-dioxo-1,2,3,4-tetrahydroquinazolin-7-yl)benzamide] | 2.01 | > 50 |  | 
30 | COc1cccc(C#N)c1-c1cc2c(s1)c(=O)n(-c1cncc3ccccc13)c(=O)n2CCC#N [Example 820] |  | 0.0329 | 0.00573 | 
31 | N#CCCn1c(=O)n(-c2cnccn2)c(=O)c2sc(-c3ccccc3Cl)cc21 [Example 828] |  | 0.458 | 0.0941 | 
32 | Cn1ncc2cncc(-n3c(=O)[nH]c4cc(-c5c(Cl)cc(Cl)c6c5CCO6)sc4c3=O)c21 [Example 656] |  |  | 0.012 | EC50 (SARS-CoV-2-NLuc; [5]): 0.0239 µM
33 | Cc1cncc(-n2c(=O)c3sc(-c4ccccc4Cl)cc3n(CCC#N)c2=O)c1 [Example 984] |  |  | 0.00312 | EC50 (SARS-CoV-2-NLuc; [5]): 0.00369 µM
34 | Cc1cc(-c2cccc(Cl)c2-c2ccc3c(=O)n(-c4cncc5ccccc45)c(=O)[nH]c3c2)ccc1C(N)=O [Example 244] | 0.0181 | 0.041 |  | 
35 | COc1ccc(Cl)c(-c2cc3[nH]c(=O)n(-c4cncc5ccc(N6CC7C(C6)C7(F)F)cc45)c(=O)c3s2)c1 (centres unmarked) [Example 232] | 0.0176 | 0.0349 |  | 
36 | COc1cc(-c2cc3c(s2)c(=O)n(-c2cncc4cn[nH]c24)c(=O)n3CCC#N)c(Cl)cc1F [Example 1047] |  | 0.0124 | 0.00553 | 
37 | COc1cncc(-c2cccc(Cl)c2-c2ccc3c(=O)n(-c4cncc5ccccc45)c(=O)[nH]c3c2)c1 [Example 199] | 0.0193 | 0.0254 |  | 
38 | COc1cc(-c2cc3[nH]c(=O)n(-c4cncc5scc(C)c45)c(=O)c3s2)c(Cl)cc1F [Example 611, 6-(2-chloro-4-fluoro-5-methoxyphenyl)-3-(3-methylthieno[2,3-c]pyridin-4-yl)thieno[3,2-d]pyrimidine-2,4(1H,3H)-dione] |  | 0.00495 | < 0.00254 | 
39 | O=c1[nH]c2cc(-c3cccnc3)sc2c(=O)n1-c1cncc2ccccc12 [Example 5] | 0.342 | 1.79 |  | 
40 | COc1cc(-c2ccc3c(=O)n(-c4cncc5ccccc45)c(=O)[nH]c3c2)c(Cl)cc1Cl [Example 316] | 1.07 | 0.322 |  | 
41 | COc1cccc(Cl)c1-c1ccc2c(=O)n(-c3cncc4ccccc34)c(=O)[nH]c2c1 [Example 58] | 0.158 | 0.164 |  | 
42 | COc1ccc(C#N)c(-c2cc3[nH]c(=O)n(-c4cncc5ccccc45)c(=O)c3cc2F)c1 [Example 428, 2-(6-fluoro-3-(isoquinolin-4-yl)-2,4-dioxo-1,2,3,4-tetrahydroquinazolin-7-yl)-4-methoxybenzonitrile] |  | 0.0179 | 0.0102 | 
43 | CC1(N2CCN(c3ccc4cncc(-n5c(=O)[nH]c6cc(-c7ccccc7Cl)sc6c5=O)c4c3)CC2)COC1 [Example 391] | 0.00625 | 0.0103 |  | 
44 | Cc1cc2ncnn2cc1-c1cc2[nH]c(=O)n(-c3cncc4ccccc34)c(=O)c2s1 [Example 15] | 3.97 | 25.1 |  | 
45 | COc1cc(-c2cc3c(s2)c(=O)n(-c2cncc4cnn(C)c24)c(=O)n3CC2(CC#N)CC2)c(Cl)cc1F [Example 659] |  |  | 0.0409 | 
